Test system: rAbf43A
Test: HPLC of released arabinose, Michaelis-Menten non-linear regression
Format: biochemical, metagenome: lignocellulolytic bacterial consortium EMSD5
Conditions: 0.05 M citric-Na2HPO4 pH 5.0, 40 °C, 10 min; AXHd3 activity; 0-40.0 mM substrate

Km: 8.03 mM
Compound: OC[C@@H]1O[C@@H](O[C@@H]2[C@@H](O[C@@H]3O[C@@H](CO)[C@H](O)[C@H]3O)[C@H](O[C@@H]3CO[C@@H](O[C@@H]4COC(O)[C@H](O)[C@H]4O)[C@H](O)[C@H]3O)OC[C@H]2O)[C@H](O)[C@H]1O (stereo partly drawn) [A2,3XX, 2^3,3^3‐di‐α‐L‐arabinofuranosyl‐xylotriose]
